Test results reported in patent US20240409558A1, “IRREVERSIBLE INHIBITORS OF KRAS” (BIOMEA FUSION, INC., priority 2021, published 2024).
Where two headings read alike, the source gives them in different places.

Tested on: human KRAS G12C mutated cell line MIA PaCa-2
Assay: Inhibition of proliferation of MIA PaCa-2 cells (CellTiter-Glo, 7 day)
Format: cell-based
Settings: 168 h, mean, read-out: MIA PaCa-2 IC50 (μM) 7 day Mean
Procedure, shortened: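 MIA PaCa-2 cells (RPMI-1640, 10% FBS) seeded at about 1000 cells/well; eight compound concentrations in duplicate added 2 h later, with media and compound refreshed on day 3. ATP-luminescence viability read on day 7 by CellTiter-Glo; % inhibition relative to 0.2% DMSO control.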

Row | SMILES | IC50 (Table 3, 7 day) [µM] | IC50 (Table 4, 7 day) [µM]
1 | C=CC(=O)N1CCN(c2nc(OC[C@@]34CCCN3C[C@H](F)C4)nc3cc(-c4c(O)cccc4C4CC4)c(F)cc23)[C@H](C)C1 [Compound 325, 1-[(3R)-4-[7-(2-cyclopropyl-6-hydroxy-phenyl)-6-fluoro-2-[[(2R,8S)-2-fluoro-1,2,3,5,6,7-hexahydropyrrolizin-8-yl]methoxy]quinazolin-4-yl]-3-methyl-piperazin-1-yl]prop-2-en-1-one] | 0.0112 | 
2 | F[C@H]1CN2CCC[C@@]2(COc2nc(N3CC4CCC(C3)N4)c3ccc(-c4cccc5cccc(Cl)c45)cc3n2)C1 [Compound 423] |  | > 1
3 | Oc1cc(Cl)c(C2CC2)c(-c2cnc3c(N4CCNCC45CC5)nc(OC[C@@]45CCCN4C[C@H](F)C5)nc3c2)c1 [Compound 414, 3-chloro-4-cyclopropyl-5-[4-(4,7-diazaspiro[2.5]octan-4-yl)-2-[[(2R,8S)-2-fluoro-1,2,3,5,6,7-hexahydropyrrolizin-8-yl]methoxy]pyrido[3,2-d]pyrimidin-7-yl]phenol] |  | > 1
4 | Fc1cc2c(N3CCNC4(CC4)C3)nc(OC[C@@]34CCCN3C[C@H](F)C4)nc2cc1-c1cccc2cccc(Cl)c12 [Compound 421, 7-(8-chloro-1-naphthyl)-4-(4,7-diazaspiro[2.5]octan-7-y1)-6-fluoro-2-[[(2R,8S)-2-fluoro-1,2,3,5,6,7-hexahydropyrrolizin-8-yl]methoxy]quinazoline] |  | > 1
5 | C=CC(=O)N1CCN(c2nc(OC[C@@]34CCCN3C[C@H](F)C4)nc3c(F)c(-c4cc(O)cc(Cl)c4C4CC4)ccc23)CC12CC2 [Compound 313, 1-[7-[7-(3-chloro-2-cyclopropyl-5-hydroxy-phenyl)-8-fluoro-2-[[(2R,8S)-2-fluoro-1,2,3,5,6,7-hexahydropyrrolizin-8-yl]methoxy]quinazolin-4-yl]-4,7-diazaspiro[2.5]octan-4-yl]prop-2-en-1-one] | 0.0373 | 
6 | C=CC(=O)N1CCC(c2nc(OC[C@@]34CCCN3C[C@H](F)C4)nc3c(F)c(-c4cc(O)cc5ccc(F)c(F)c45)ncc23)CC1 [Compound 330] | 0.00664 | 
7 | C#Cc1c(F)ccc2cccc(-c3ncc4c(N5CC6CCC(C5)N6C(=O)C=C)nc(OCC56CCCN5CCC6)nc4c3F)c12 [Compound 303, 1-[3-[7-(8-ethynyl-7-fluoro-1-naphthyl)-8-fluoro-2-(1,2,3,5,6,7-hexahydropyrrolizin-8-ylmethoxy)pyrido[4,3-d]pyrimidin-4-yl]-3,8-diazabicyclo[3.2.1]octan-8-yl]prop-2-en-1-one] | 0.0006 | 
8 | Oc1cc(Cl)c(C2CC2)c(-c2ccc3c(N4CC5CCC(C4)N5)nc(OC[C@@]45CCCN4C[C@H](F)C5)nc3c2)c1 [Compound 428, 3-chloro-4-cyclopropyl-5-[4-(3,8-diazabicyclo[3.2.1]octan-3-y1)-2-[[(2R,8S)-2-fluoro-1,2,3,5,6,7-hexahydropyrrolizin-8-yl]methoxy]quinazolin-7-yl]phenol] |  | > 1
9 | N#CC1CNCCN1c1nc(OC[C@@]23CCCN2C[C@H](F)C3)nc2cc(-c3cc(O)cc(Cl)c3C3CC3)cnc12 (stereo partly drawn) [Compound 416, 1-[7-(3-chloro-2-cyclopropyl-5-hydroxy-phenyl)-2-[[(2R,8S)-2-fluoro-1,2,3,5,6,7-hexahydropyrrolizin-8-yl]methoxy]pyrido[3,2-d]pyrimidin-4-yl]piperazine-2-carbonitrile] |  | > 1
10 | C=CC(=O)N1C2CCC1CN(c1nc(OC[C@@]34CCCN3C[C@H](F)C4)nc3cc(-c4cccc5cccc(Cl)c45)c(F)cc13)C2 [Compound 321, 1-[3-[7-(8-chloro-1-naphthyl)-6-fluoro-2-[[(2R,8S)-2-fluoro-1,2,3,5,6,7-hexahydropyrrolizin-8-yl]methoxy]quinazolin-4-y1]-3,8-diazabicyclo[3.2.1]octan-8-yl]prop-2-en-1-one] | > 1 | 
11 | CC(C)C(O)CN1C2CCC1CN(c1nc(OC[C@@]34CCCN3C[C@H](F)C4)nc3c(F)c(-c4cc(O)cc(Cl)c4C4CC4)ncc13)C2 (stereo partly drawn) [Compound 434] |  | > 1
12 | C=CC(=O)N1C2CCC1CN(c1cc(OC[C@@]34CCCN3C[C@H](F)C4)nc3c(F)c(-c4cc(O)cc(Cl)c4C4CC4)ccc13)C2 [Compound 326] | > 1 | 
